Experimental data reported in patent publication US10597388B2, “Pyridazinone herbicides” (FMC CORPORATION, priority 2014, dated 2020).

What was measured:
Type in all cases: in vivo
[1] = test system: blackgrass (Alopecurus myosuroides); assay: Test C greenhouse herbicide test, pre- and postemergence
Summary of the method: (§1)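 Visual 0–100 injury score (100 = complete control) taken against untreated controls after 13–15 d in greenhouse. Test chemicals, formulated in solvent plus surfactant, applied preemergence to seeds in loam–sand soil or postemergence to 1- to 4-leaf plants (2–18 cm).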

[2] = test system: barnyardgrass (Echinochloa crus-galli); assay: as above
Summary of the method: as §1

[3] = test system: waterhemp (common waterhemp, Amaranthus rudis); assay: as above
Summary of the method: as §1

[4] = test system: ragweed (common ragweed, Ambrosia elatior); assay: as above
Summary of the method: as §1

[5] = test system: lambsquarters (Chenopodium album); assay: as above
Summary of the method: as §1

[6] = test system: johnsongrass (Sorghum halepense); assay: as above
Summary of the method: as §1

[7] = test system: morningglory (Ipomoea coccinea); assay: as above
Summary of the method: as §1

[8] = test system: wheat (winter wheat, Triticum aestivum); assay: as above
Summary of the method: as §1

soybean (Glycine max) = assay: as above
Summary of the method: as §1

[9] = test system: crabgrass, large (large crabgrass, Digitaria sanguinalis); assay: as above
Summary of the method: as §1

[10] = test system: foxtail, giant (giant foxtail, Setaria faberii); assay: as above
Summary of the method: as §1

corn (Zea mays) = assay: as above
Summary of the method: as §1

[11] = test system: ryegrass, Italian (Italian ryegrass, Lolium multiflorum); assay: as above
Summary of the method: as §1

[12] = test system: pigweed (Amaranthus retroflexus); assay: as above
Summary of the method: as §1

kochia (Kochia scoparia) = assay: Test C greenhouse herbicide test, postemergence; details: for Plant response rating, Kochia: Postemergence
Summary of the method: (§2)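 Greenhouse postemergence spray on plants 2–18 cm tall; response judged visually after 13–15 d relative to untreated controls using a 0 (none) to 100 (full control) scale.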

[13] = test system: oat, wild (wild oat, Avena fatua); assay: Test C greenhouse herbicide test, postemergence; details: for Plant response rating, Oat, Wild: Postemergence
Summary of the method: as §2

[14] = Postemergence, 31 g ai/ha, 0 to 100 scale (0 no effect, 100 complete control)
[15] = Postemergence, 125 g ai/ha, scale 0 to 100, 0 is no effect, 100 is complete control
[16] = Postemergence, 250 g ai/ha, scale 0 to 100, 0 no effect, 100 complete control, 13 to 15 d
[17] = Preemergence, 31 g ai/ha, scale 0 to 100, 0 is no effect, 100 is complete control
[18] = Preemergence, 62 g ai/ha, scale 0 to 100, 0 is no effect, 100 is complete control
[19] = Preemergence, 125 g ai/ha, scale 0 to 100, 0 is no effect, 100 is complete control
[20] = Preemergence, 250 g ai/ha, scale 0 to 100 (0 no effect, 100 complete control)
[21] = postemergence, 62 g ai/ha, scale 0 to 100, 0 no effect, 100 complete control
[22] = 125 g ai/ha, scale 0 to 100, 0 is no effect, 100 is complete control
[23] = 250 g ai/ha, scale 0 to 100, 0 no effect, 100 complete control, 13 to 15 d

With `CC(=O)Oc1c(C)nn(C)c(=O)c1-c1ccc(F)c2ccccc12` [Compound 90] the “Blackgrass plant response rating” value [1, 14] was 10, the “Plant response rating, Blackgrass” value [1, 15] was 25 and the “Plant response rating, Blackgrass” value [1, 16] was 40. The “Plant response rating, Blackgrass” value [1, 17] was 25, the “Plant response rating, Blackgrass” value [1, 18] was 40 and the “Plant response rating, Blackgrass” value [1, 19] was 50. The “Blackgrass plant response rating” value [1, 20] was 55, the “Blackgrass plant response rating” value [1, 21] was 15 and the “Barnyardgrass plant response rating” value [2, 14] was 30. The “Plant response rating, Barnyardgrass” value [2, 15] was 50, the “Plant response rating, Barnyardgrass” value [2, 16] was 70 and the “Plant response rating, Barnyardgrass” value [2, 17] was 35. For the same compound, the “Plant response rating, Barnyardgrass” value [2, 18] was 65, the “Plant response rating, Barnyardgrass” value [2, 19] was 75 and the “Barnyardgrass plant response rating” value [2, 20] was 95. The “Barnyardgrass plant response rating” value [2, 21] was 35, the “Plant response rating, Waterhemp” value [3, 15] was 100 and the “Plant response rating, Waterhemp” value [3, 16] was 100. The “Plant response rating, Waterhemp” value [3, 17] was 75, the “Plant response rating, Waterhemp” value [3, 18] was 90 and the “Plant response rating, Waterhemp” value [3, 19] was 100. For the same compound, the “Waterhemp plant response rating” value [3, 20] was 100, the “Waterhemp plant response rating” value [3, 21] was 100 and the “Plant response rating, Ragweed” value [4, 15] was 95. The “Plant response rating, Ragweed” value [4, 16] was 100, the “Plant response rating, Ragweed” value [4, 17] was 80 and the “Plant response rating, Ragweed” value [4, 18] was 90. The “Plant response rating, Ragweed” value [4, 19] was 85, the “Ragweed plant response rating” value [4, 20] was 95 and the “Ragweed plant response rating” value [4, 21] was 85. For the same compound, the “Plant response rating, Lambsquarters” value [5, 15] was 98, the “Plant response rating, Lambsquarters” value [5, 16] was 100 and the “Plant response rating, Lambsquarters” value [5, 17] was 75. The “Plant response rating, Lambsquarters” value [5, 18] was 80, the “Plant response rating, Lambsquarters” value [5, 19] was 85 and the “Lambsquarters plant response rating” value [5, 20] was 100. For the same compound, the “Lambsquarters plant response rating” value [5, 21] was 98, the “Plant response rating, Johnsongrass” value [6, 15] was 10 and the “Plant response rating, Johnsongrass” value [6, 16] was 20. For the same compound, the “Plant response rating, Johnsongrass” value [6, 17] was 50, the “Plant response rating, Johnsongrass” value [6, 18] was 55 and the “Plant response rating, Johnsongrass” value [6, 19] was 60. The “Johnsongrass plant response rating” value [6, 20] was 65, the “Johnsongrass plant response rating” value [6, 21] was 10 and the “Plant response rating, Morningglory” value [7, 15] was 100. The “Plant response rating, Morningglory” value [7, 16] was 100, the “Plant response rating, Morningglory” value [7, 17] was 85 and the “Plant response rating, Morningglory” value [7, 18] was 85. For the same compound, the “Plant response rating, Morningglory” value [7, 19] was 98, the “Morningglory plant response rating” value [7, 20] was 98 and the “Morningglory plant response rating” value [7, 21] was 100. For the same compound, the “Plant response rating, Wheat” value [8, 15] was 10, the “Plant response rating, Wheat” value [8, 16] was 30 and the “Plant response rating, Wheat” value [8, 17] was 5. The “Plant response rating, Wheat” value [8, 18] was 0, the “Plant response rating, Wheat” value [8, 19] was 35 and the “Wheat plant response rating” value [8, 20] was 40. The “Wheat plant response rating” value [8, 21] was 10, the “Plant response rating, Soybean” value (soybean (Glycine max); [15]) was 55 and the “Plant response rating, Soybean” value (soybean (Glycine max); [16]) was 70. The “Plant response rating, Soybean” value (soybean (Glycine max); [17]) was 0, the “Plant response rating, Soybean” value (soybean (Glycine max); [18]) was 0 and the “Plant response rating, Soybean” value (soybean (Glycine max); [19]) was 10. For the same compound, the “Soybean plant response rating” value (soybean (Glycine max); [20]) was 100, the “Soybean plant response rating” value (soybean (Glycine max); [21]) was 50 and the “Plant response rating, Crabgrass, Large” value [9, 15] was 35. For the same compound, the “Plant response rating, Crabgrass, Large” value [9, 16] was 75, the “Plant response rating, Crabgrass, Large” value [9, 17] was 35 and the “Plant response rating, Crabgrass, Large” value [9, 18] was 70. For the same compound, the “Plant response rating, Crabgrass, Large” value [9, 19] was 75, the “Crabgrass, Large plant response rating” value [9, 20] was 85 and the “Crabgrass, Large plant response rating” value [9, 21] was 15. For the same compound, the “Plant response rating, Foxtail, Giant” value [10, 15] was 55, the “Plant response rating, Foxtail, Giant” value [10, 16] was 75 and the “Plant response rating, Foxtail, Giant” value [10, 17] was 75. For the same compound, the “Plant response rating, Foxtail, Giant” value [10, 18] was 75, the “Plant response rating, Foxtail, Giant” value [10, 19] was 90 and the “Foxtail, Giant plant response rating” value [10, 20] was 95. The “Foxtail, Giant plant response rating” value [10, 21] was 25, the “Corn plant response rating” value (corn (Zea mays); [14]) was 5 and the “Plant response rating, Corn” value (corn (Zea mays); [15]) was 10. The “Plant response rating, Corn” value (corn (Zea mays); [16]) was 25, the “Plant response rating, Corn” value (corn (Zea mays); [17]) was 0 and the “Plant response rating, Corn” value (corn (Zea mays); [18]) was 0. The “Plant response rating, Corn” value (corn (Zea mays); [19]) was 5, the “Corn plant response rating” value (corn (Zea mays); [20]) was 30 and the “Corn plant response rating” value (corn (Zea mays); [21]) was 10. For the same compound, the “Plant response rating, Ryegrass, Italian” value [11, 15] was 90, the “Plant response rating, Ryegrass, Italian” value [11, 16] was 90 and the “Plant response rating, Ryegrass, Italian” value [11, 17] was 90. The “Plant response rating, Ryegrass, Italian” value [11, 18] was 95, the “Plant response rating, Ryegrass, Italian” value [11, 19] was 95 and the “Ryegrass, Italian plant response rating” value [11, 20] was 95. For the same compound, the “Ryegrass, Italian plant response rating” value [11, 21] was 90, the “Plant response rating, Pigweed” value [12, 15] was 95 and the “Plant response rating, Pigweed” value [12, 16] was 100. For the same compound, the “Plant response rating, Pigweed” value [12, 17] was 100, the “Plant response rating, Pigweed” value [12, 18] was 100 and the “Plant response rating, Pigweed” value [12, 19] was 100. For the same compound, the “Pigweed plant response rating” value [12, 20] was 100, the “Pigweed plant response rating” value [12, 21] was 80 and the “Plant response rating, Kochia” value (kochia (Kochia scoparia); [22]) was 100. The “Plant response rating, Kochia” value (kochia (Kochia scoparia); [23]) was 100, the “Kochia plant response rating” value (kochia (Kochia scoparia); [21]) was 100 and the “Plant response rating, Oat, Wild” value [13, 22] was 90. The “Plant response rating, Oat, Wild” value [13, 23] was 95 and the “Oat, Wild plant response rating” value [13, 21] was 70.
